What is called Kd is the equilibrium constant for the complex coming apart.

1 molecule from patent publication US12527788B2, “Defining RNA-small molecule affinity landscapes enables design of a small molecule inhibitor of an oncogenic non-coding RNA” (University of Florida Research Foundation, Incorporated, priority 2017, dated 2026) can be followed below.

The target in assay [1] is RNAC (U bulge mutated to an AU pair). The assay can be described thus: Fluorescence-based binding affinity measurement. As to the method: FIG. 7: Secondary structures of the nucleic acids to which the binding of small molecule 4 was assessed. […] RNA1 contains the U bulge present in the Dicer processing site common to miR-17, -18a and -20a. RNA2 contains the A bulge that is present in miR-18a. RNA3 contains the G bulge present in miR-17 and miR-20a. Binding affinities (Kd's) are indicated in parentheses and are reported in micromolar.
Mutation of the U bulge to an AU pair (RNAC) eliminates binding (Kd>100 μM).
Binding Affinity Measurements: An in solution, fluorescence-based assay was used to determine binding affinities by monitoring the change in fluorescence intensity of 1-FL (or 2-FL/3-FL/4-FL) as a function of RNA concentration as described previously.^18 Briefly, the RNA of interest was folded in 1× Folding Buffer (8 mM Na2HPO4, pH 7.0, 185 mM NaCl and 1 mM EDTA) by heating at 60° C. for 5 min followed by slowly cooling to room temperature on the bench top. Then, the FL-conjugated compound was added into the RNA solution to a final concentration of 100 nM. Serial dilutions were then completed using 1× Folding Buffer supplemented with 100 nM FL-conjugated compound. The solutions were incubated at room temperature for 30 min and then transferred to a well of a black 384-well plate. […]

In the next assay the target is AT-rich DNA hairpin. The assay can be described thus: In solution fluorescence-based binding affinity measurement. The text has this: It has been difficult to identify compounds that are heterocyclic in nature that selectively recognize RNA over DNA.^5 Thus, to further gain insight into the selectivity of our RNA motif-small molecule interactions, we compared the measured affinities for selected RNA motifs to the affinities of the ligands for an AT-rich DNA hairpin, a common target of small molecules similar to those shown in FIG. 1. […] This alteration reduces DNA affinity because key stacking and hydrogen bonding interactions are not possible. […] Thus, the interactions selected via 2DCS are RNA-selective.
Binding Affinity Measurements: An in solution, fluorescence-based assay was used to determine binding affinities by monitoring the change in fluorescence intensity of 1-FL (or 2-FL/3-FL/4-FL) as a function of RNA concentration as described previously.^18 Briefly, the RNA of interest was folded in 1× Folding Buffer (8 mM Na2HPO4, pH 7.0, 185 mM NaCl and 1 mM EDTA) by heating at 60° C. for 5 min followed by slowly cooling to room temperature on the bench top. Then, the FL-conjugated compound was added into the RNA solution to a final concentration of 100 nM. Serial dilutions were then completed using 1× Folding Buffer supplemented with 100 nM FL-conjugated compound. The solutions were incubated at room temperature for 30 min and then transferred to a well of a black 384-well plate. Fluorescence intensity was measured using a Bio-Tek FL×800 plate reader with an excitation wavelength of 485/20 nm and an emission wavelength of 528/20 nm. The change in fluorescence intensity as a function of the concentration of RNA was fit to equation 3:^9 I=I0+0.5 Δε{([FL]0+[RNA]0 +Kd)−(([FL]0+[RNA]0+Kd)^2−4[FL]0[RNA]0)^1/2} (3) where I is the observed fluorescence intensity; I0 is the fluorescence intensity in the absence of RNA; Δε is the difference between the fluorescence intensity in the absence of RNA and in the presence of infinite RNA concentration; [FL]0 is the concentration of compound; [RNA]0 is the concentration of the selected RNA; and Kd is the dissociation constant.

Assay [2] concerns 5′GGU/3′C_A (G bulge of pre-miR-17 and pre-miR-20a). The assay can be described thus: HiT-StARTS Fitness Score, 3×2 ILL selection. The assay is classed as binding, human. The note with it: Zobs normalized to most significant binder. The text has this: (§1) Additionally, Zobs Rank (and by analogy Zobs) can also be used to estimate the affinities of binding interactions (FIG. 5). Single exponential curves with an asymptote defined a correlation between Zobs and experimentally determined Kd for each compound and its cognate RNA motifs. In all cases, there is excellent correlation with R values ranging from 0.86 to 0.96. These scoring functions can provide a means to rapidly profile small molecules for binding to an “on-” and “off-” targets, as mentioned above. Zobs values were normalized to the most statistically significant RNA binder (100% Fitness) to afford Fitness Scores.
(§2) To test the general applicability of these approaches to other RNA motif libraries, we used 2DCS to select RNA motifs derived from a 3×2 internal loop library (3×2 ILL) that bind to small molecules 1-8. […] That is, selective binders have Zobs>8 (p<0.0001) and relative Zobs defined a scoring function for the selected RNA motif-small molecule interactions.
(§3) These studies identified that compound 4 bound with 100% Fitness to the 5′ G_U/3′CUA (one nucleotide U bulge) that is present in the Dicer processing sites of three microRNAs (miRNAs) in the oncogenic miR-17-92 cluster (contains six mature miRNAs),^43 miR-17, -18a, and -20a. […] The binding affinity of 4 for RNAs containing these three bulges was measured (FIG. 7).
(§4) Calculating Statistical Significance (Zobs) for Selected RNAs: To determine if the difference in frequency for given RNA in the starting library and in the selection was statistically significant, a pooled population comparison (Zobs) was calculated using equations (1) and (2):
(§5) [formula] […] Where n1 is the size of population 1 (number of reads for a selected RNA); n2 is the size of population 2 (number of reads for the same RNA from sequencing of the starting library); p1 is the observed proportion of population 1 (number of reads for a selected RNA divided by the total number of reads); p2 is the observed proportion for population 2 (number of reads for the same RNA divided by the total number of reads in the starting library).

The subject of assay [3] is 5′GAU/3′C_A (A bulge of pre-miR-18a). The assay can be described thus: HiT-StARTS Fitness Score, 3×2 ILL selection. The assay is classed as binding, human. The note with it: Zobs normalized to most significant binder.
From the text: as §1, §2, §3, §4, §5

Assay [4] deals with 5′G_U/3′CUA (one nucleotide U bulge). The assay can be described thus: HiT-StARTS Fitness Score, 3×2 ILL selection. The assay is classed as binding, human. Conditions: Zobs normalized to most significant binder.
From the text: as §1, §2, §3, §4, §5

A further assay has as its system miR-19b. The assay can be described thus: RT-qPCR of mature miRNA levels in DU145 cells. The assay is classed as cell-based, human. As to the method: (§6) In particular, the mature levels of each miRNA in the cluster were studied by RT-qPCR. In agreement with our in vitro Dicer processing studies (FIG. 8A and Figures S-58-S-62), 4 decreases the amount of mature miR-17, -18a, and -20a at low micromolar concentrations with an IC50 of ˜10 µM, but has no effect on miR-19a, -19b, and -92a (FIG. 8B).
(§7) Cell Culture: DU145 cells were cultured in growth medium (Roswell Park Memorial Institute medium (RPMI) supplemented with 10% fetal bovine serum (FBS)) at 37° C. and 5% CO2
(§8) Total RNA was extracted from cells using a Quick-RNA Miniprep Kit (Zymo Research) per the manufacturer's protocol. Approximately 200 ng of total RNA was used in reverse transcription (RT) reactions, which were completed using a miScript II RT kit (Qiagen) per the manufacturer's protocol. RT-qPCR was performed on a 7900HT Fast Real Time PCR System (Applied Biosystem) using power SYBR Green Master Mix (Applied Biosystems). All primer sets were purchased from Integrated DNA Technologies, Inc. (IDT) or Eurofins (Table S1). The expression levels of mature miRNAs were normalized to U6 small nuclear RNA or 18s rRNA.
For orientation: Quantitative PCR measures a nucleic acid by following its amplification.

The test system of a further assay is miR-19a. The assay can be described thus: RT-qPCR of mature miRNA levels in DU145 cells. Type of assay: cell-based, human. As for the experimental part:
as §6, §7, §8

`CN1CCN(c2ccc(-c3ccc4nc(-c5cc(C(C)(C)C)c(OCCCC(=O)NCCCN=[N+]=[N-])c(C(C)(C)C)c5)[nH]c4c3)cc2)CC1` [Compound 4]: the Kd (in assay [1]; on AT-rich DNA hairpin) was above 100 µM throughout. In addition, the Fitness is 78% in assay [2], 91% in assay [3] and 100% in assay [4]. The “Effect on mature miRNA level” value with miR-19b and in the assay with miR-19a was “no effect” throughout.
